Laboratory results from ChEMBL document CHEMBL1944614, “A scaffold hopping approach to identify novel monoamine oxidase B inhibitors” (Bioorg Med Chem Lett, 2012).

Tests used:
[1] = target: T1, Amine oxidase [flavin-containing] A (Homo sapiens, UniProt P21397); experiment: Inhibition of human recombinant MAOA using kynuramine as substrate by fluorimetry
T1 sequence (P21397 whole entry): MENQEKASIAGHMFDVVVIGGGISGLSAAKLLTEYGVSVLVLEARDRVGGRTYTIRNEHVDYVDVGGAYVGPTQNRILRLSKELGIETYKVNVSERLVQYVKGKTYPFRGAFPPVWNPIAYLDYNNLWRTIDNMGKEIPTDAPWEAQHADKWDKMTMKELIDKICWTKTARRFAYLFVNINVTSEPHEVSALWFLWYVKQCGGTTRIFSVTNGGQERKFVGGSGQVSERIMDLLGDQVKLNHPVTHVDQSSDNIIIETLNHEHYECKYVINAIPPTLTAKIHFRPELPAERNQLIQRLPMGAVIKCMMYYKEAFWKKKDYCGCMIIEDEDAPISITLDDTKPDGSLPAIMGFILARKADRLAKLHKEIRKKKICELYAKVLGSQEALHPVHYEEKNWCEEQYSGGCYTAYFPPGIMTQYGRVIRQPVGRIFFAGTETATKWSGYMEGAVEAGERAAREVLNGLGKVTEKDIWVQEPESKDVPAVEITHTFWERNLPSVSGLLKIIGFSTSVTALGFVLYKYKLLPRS

[2] = target: T2, Amine oxidase [flavin-containing] B (Homo sapiens, UniProt P27338); experiment: Inhibition of human recombinant MAOB using kynuramine as substrate by fluorimetry
T2 sequence (P27338 whole entry): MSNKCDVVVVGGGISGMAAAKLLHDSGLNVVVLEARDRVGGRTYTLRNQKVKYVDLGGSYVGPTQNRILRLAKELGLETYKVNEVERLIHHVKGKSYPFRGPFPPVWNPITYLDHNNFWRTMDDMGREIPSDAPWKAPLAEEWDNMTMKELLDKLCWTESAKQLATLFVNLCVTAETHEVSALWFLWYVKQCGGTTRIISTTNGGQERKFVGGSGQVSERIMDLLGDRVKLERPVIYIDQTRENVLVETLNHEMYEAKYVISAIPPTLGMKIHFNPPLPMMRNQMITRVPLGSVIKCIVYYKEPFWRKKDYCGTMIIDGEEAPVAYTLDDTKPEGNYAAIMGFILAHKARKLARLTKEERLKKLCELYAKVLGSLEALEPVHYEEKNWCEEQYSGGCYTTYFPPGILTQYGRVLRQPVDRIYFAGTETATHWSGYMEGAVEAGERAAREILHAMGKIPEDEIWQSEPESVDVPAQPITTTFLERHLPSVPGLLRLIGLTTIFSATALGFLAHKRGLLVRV

[3] = target: T2, Amine oxidase [flavin-containing] B; experiment: Competitive inhibition of human recombinant MAOB by Lineweaver-Burk plot analysis

| IC50 [1] [µM] | IC50 [2] [µM] | inhibition (INH) [3] | Structure (SMILES) |
| --- | --- | --- | --- |
| 40.2 | 3.35 | – | Cc1ccc2c(c1)O/C(=C\c1ccccc1)C2=O |
| 17.7 | 11.5 | – | O=C1/C(=C/c2ccccc2O)Oc2cc(O)ccc21 |
| 0.268 | 0.099 | – | CN(C)c1ccc(/C=C2\Oc3ccccc3C2=O)cc1 |
| > 100 | 13.3 | – | Cc1[nH]n(-c2ccccc2)c(=O)c1/C=N/NC(=O)c1cccnc1 |
| > 100 | 2.62 | – | COc1ccc(NC(=O)N2CCc3ccccc32)cc1 |
| 43.5 | 0.228 | Active | O=C1NC(=O)/C(=C\c2ccc(Br)cc2)S1 |
| 5.36 | 0.921 | – | CCOC1CC(c2ccccc2)=NN1c1ccc([N+](=O)[O-])cc1 (stereo not drawn) |
| 0.979 | – | – | CN(C)c1ccc(/C=C2\Oc3cc(O)ccc3C2=O)cc1 |
| 0.709 | 0.305 | – | O=C1/C(=C/c2ccc(Cl)cc2)Oc2ccccc21 |
